Values joined by “and” are separate entries in the source; they are usually repeats but may differ in a detail not shown here. Equal values may be shown once.
How the values were obtained:
HeLa MCTS = assay: MCTS imaging and cytotoxicity (penetration, PI staining); type: cell-based, human; details: 10 μM 1 h, then 24 h
Procedure: Supplementary Figure 25. Flow cytometric analysis of HeLa cell death. (a) Gating strategy applied for flow cytometric analysis. (b) Representative flow cytometric analysis of HeLa cells by Annexin V-FITC/PI staining. HeLa cells were treated with PBS, CDDP, PtIVNPs or P-CyPt (20 μM) for 2 h, washed with cold PBS for three times, and then continued incubation in refresh blank DMEM medium for another 48 h. The cells were then stained with the Annexin V-FITC/PI kit, and analyzed by flow cytometry. One representative experiment out of two is shown.
Supplementary Figure 26. Evaluation of the penetration and cytotoxicity of PtIVNPs toward HeLa MCTS. MCTS were incubated with PtIVNPs (10 μM) for 1 h, then washed with PBS buffer for three times, followed by incubation for another 24 h.
The MCTs were then co-stained with PI. […]
μm. […] The fluorescence images of the MCTS were captured on a Leica TCS SP8 confocal laser scanning microscope, microscope (TCS SP8 STED 3X) with 10x/0.4 dry lens (Leica), and captured at RGB on a HyD detector (Leica Dmi8) under PI and Cy5.5 channels. […]
were sacrificed after 4 h. […] The fluorescence images of these organs and tumors were acquired with the IVIS Lumina XR III imaging system using a 660 nm excitation filter and a 750 ± 50 nm emission filter. […]

ALP = target: T1, ALP (Bos taurus, UniProt P19111); assay: Dephosphorylated efficacy of P-CyPt towards varying concentrations of ALP (NIR fluorescence); type: biochemical
T1 construct: Alkaline phosphatase from bovine; purchased Sigma-Aldrich; host or cells: bovine intestinal mucosa (tissue-derived)

[1] = test system: orthotopic HepG2/Luc liver tumors; assay: NIR FL imaging of orthotopic HepG2/Luc liver tumors in vivo; design: species or system mice
Procedure: (100 μM, in 200 μL saline). Whole body FL images of mice prior to (pre) and at 1 h, 2 h, 4 h, 8 h post injection of P-CyPt or […] acquired on the IVIS Lumina XR III imaging system, using a 660 nm excitation filter and a 750 ± 50 nm emission filter. Each experiment was conducted in three mice. The FL intensities were quantified by the region of interest (ROI) measurement using Living Image Software (4.5.2, PerkinElmer, MA, U.S.A). […] (500 μM, in 200 μL saline). The PA images of the s.c. HeLa tumors in mice prior to (pre), and at 1, 2, 4 h post injection were captured on the Vevo 2100 LAZR system (FUJIFILM VisualSonics), with excitation at 700 and 750 nm. The PA intensities were quantified by the equipped software.

T1 sequence (P19111 20-533): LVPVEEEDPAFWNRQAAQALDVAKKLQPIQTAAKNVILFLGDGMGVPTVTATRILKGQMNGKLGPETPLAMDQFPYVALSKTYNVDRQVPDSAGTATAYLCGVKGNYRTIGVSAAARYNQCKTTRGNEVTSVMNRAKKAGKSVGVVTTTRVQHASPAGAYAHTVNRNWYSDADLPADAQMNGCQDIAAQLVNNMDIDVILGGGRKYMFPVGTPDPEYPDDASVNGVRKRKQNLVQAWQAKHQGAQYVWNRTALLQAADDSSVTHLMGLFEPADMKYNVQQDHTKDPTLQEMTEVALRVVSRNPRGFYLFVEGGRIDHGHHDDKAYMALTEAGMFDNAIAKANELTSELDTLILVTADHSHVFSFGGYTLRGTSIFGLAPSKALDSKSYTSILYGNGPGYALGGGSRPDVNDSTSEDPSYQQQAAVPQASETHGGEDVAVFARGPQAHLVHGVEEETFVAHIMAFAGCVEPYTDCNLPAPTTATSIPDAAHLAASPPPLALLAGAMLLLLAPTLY

CC1(C)C(/C=C/C2=C3Oc4cc(OP(=O)(O)O)c(Cl)cc4C=C3CCC2)=[N+](CCCNC(=O)[C@@H](Cc2ccccc2)NC(=O)[C@@H](Cc2ccccc2)NC(=O)CCC(=O)[O][Pt]([NH2])([NH2])([OH])([Cl])[Cl])c2ccccc21 [P-CyPt]
penetration / cell-kill depth in MCTS (HeLa MCTS): ~ 200 μm
Normalized FL intensity (ALP; ALP 5 U/L, 10 min, mean of 3 samples): 1.71
Normalized FL intensity (ALP; ALP 5 U/L, 10 min, single samples): 1.648 and 1.73 and 1.752
Normalized FL intensity (ALP; ALP 5 U/L, 12 min, mean of 3 samples): 1.864
Normalized FL intensity (ALP; ALP 5 U/L, 12 min, single samples): 1.757 and 1.865 and 1.97
Normalized FL intensity (ALP; ALP 5 U/L, 14 min, mean of 3 samples): 1.881
Normalized FL intensity (ALP; ALP 5 U/L, 14 min, single samples): 1.813 and 1.9087 and 1.922
Normalized FL intensity (ALP; ALP 10 U/L, 10 min, mean of 3 samples): 2.116
Normalized FL intensity (ALP; ALP 10 U/L, 10 min, single samples): 2.078 and 2.183 and 2.087
Normalized FL intensity (ALP; ALP 10 U/L, 12 min, mean of 3 samples): 2.286
Normalized FL intensity (ALP; ALP 10 U/L, 12 min, single samples): 2.204 and 2.296 and 2.357
Normalized FL intensity (ALP; ALP 10 U/L, 14 min, mean of 3 samples): 2.562
Normalized FL intensity (ALP; ALP 10 U/L, 14 min, single samples): 2.47 and 2.6 and 2.617
Normalized FL intensity (ALP; ALP 10 U/L, 16 min, mean of 3 samples): 2.829
Normalized FL intensity (ALP; ALP 10 U/L, 16 min, single samples): 2.713 and 2.865 and 2.9087
Normalized FL intensity (ALP; ALP 20 U/L, 10 min, mean of 3 samples): 2.617
Normalized FL intensity (ALP; ALP 20 U/L, 10 min, single samples): 2.53 and 2.596 and 2.726
Normalized FL intensity (ALP; ALP 20 U/L, 12 min, mean of 3 samples): 2.996
Normalized FL intensity (ALP; ALP 20 U/L, 12 min, single samples): 2.926 and 2.987 and 3.074
Normalized FL intensity (ALP; ALP 20 U/L, 14 min, mean of 3 samples): 3.404
Normalized FL intensity (ALP; ALP 20 U/L, 14 min, single samples): 3.322 and 3.383 and 3.5087
Normalized FL intensity (ALP; ALP 20 U/L, 16 min, mean of 3 samples): 3.783
Normalized FL intensity (ALP; ALP 20 U/L, 16 min, single samples): 3.7 and 3.73 and 3.917
Normalized FL intensity (ALP; ALP 50 U/L, 10 min, mean of 3 samples): 3.187
Normalized FL intensity (ALP; ALP 50 U/L, 10 min, single samples): 3.135 and 3.157 and 3.27
Normalized FL intensity (ALP; ALP 50 U/L, 12 min, mean of 3 samples): 3.6029
Normalized FL intensity (ALP; ALP 50 U/L, 12 min, single samples): 3.483 and 3.583 and 3.743
Normalized FL intensity (ALP; ALP 50 U/L, 14 min, mean of 3 samples): 4.096
Normalized FL intensity (ALP; ALP 50 U/L, 14 min, single samples): 3.9913 and 4.022 and 4.274
Normalized FL intensity (ALP; ALP 50 U/L, 16 min, mean of 3 samples): 4.5913
Normalized FL intensity (ALP; ALP 50 U/L, 16 min, single samples): 4.43 and 4.465 and 4.878
Normalized FL intensity (ALP; ALP 100 U/L, 10 min, mean of 3 samples): 4.5971
Normalized FL intensity (ALP; ALP 100 U/L, 10 min, single samples): 4.522 and 4.557 and 4.713
Normalized FL intensity (ALP; ALP 100 U/L, 12 min, mean of 3 samples): 5.171
Normalized FL intensity (ALP; ALP 100 U/L, 12 min, single samples): 4.861 and 5.296 and 5.357
Normalized FL intensity (ALP; ALP 100 U/L, 14 min, mean of 3 samples): 5.964
Normalized FL intensity (ALP; ALP 100 U/L, 14 min, single samples): 5.887 and 5.948 and 6.057
Normalized FL intensity (ALP; ALP 100 U/L, 16 min, mean of 3 samples): 6.53
Normalized FL intensity (ALP; ALP 100 U/L, 16 min, single samples): 6.426 and 6.513 and 6.652
Normalized FL intensity (ALP; ALP 200 U/L, 10 min, mean of 3 samples): 5.588
Normalized FL intensity (ALP; ALP 200 U/L, 10 min, single samples): 5.343 and 5.613 and 5.8087
Normalized FL intensity (ALP; ALP 200 U/L, 12 min, mean of 3 samples): 6.483
Normalized FL intensity (ALP; ALP 200 U/L, 12 min, single samples): 6.217 and 6.557 and 6.674
Normalized FL intensity (ALP; ALP 200 U/L, 14 min, mean of 3 samples): 6.862
Normalized FL intensity (ALP; ALP 200 U/L, 14 min, single samples): 6.857 and 6.626 and 7.104
Normalized FL intensity (ALP; ALP 500 U/L, 10 min, mean of 3 samples): 6.133
Normalized FL intensity (ALP; ALP 500 U/L, 10 min, single samples): 5.804 and 6.287 and 6.3087
Normalized FL intensity (ALP; ALP 500 U/L, 12 min, mean of 3 samples): 6.81
Normalized FL intensity (ALP; ALP 500 U/L, 12 min, single samples): 6.661 and 6.722 and 7.048
Normalized FL intensity (ALP; ALP 500 U/L, 14 min, mean of 3 samples): 7.207
Normalized FL intensity (ALP; ALP 500 U/L, 14 min, single samples): 6.848 and 7.161 and 7.613
quantified FL intensity of HepG2/Luc liver tumors (Fig. 5b) ([1]; 2 h): 9.80E+08
quantified FL intensity of HepG2/Luc liver tumors (Fig. 5b) ([1]; 4 h): 8.66E+08
quantified FL intensity of HepG2/Luc liver tumors (Fig. 5b) ([1]; 8 h): 3.61E+08
quantified FL intensity of HepG2/Luc liver tumors (Fig. 5b) ([1]; i.v. 100 μM, 200 μL, 1 h): 1.05E+09

Reference: paper PMC9925730, “Controlled sequential in situ self-assembly and disassembly of a fluorogenic cisplatin prodrug for cancer theranostics” (Nature Communications, 2023)
